Assay results reported in patent publication US9598384B2, “3-(2-amino-ethyl)-alkylidene)-thiazolidine-2,4-dione and 1-(2-amino-ethyl)-alkylidene-1,3-dihydro-indol-2-one derivatives as selective sphingosine kinase 2 inhibitors” (VIRGINIA COMMONWEALTH UNIVERSITY, priority 2012, dated 2017).
“And” between values parts separate entries of the source, which are not always exact repeats. Equal entries are not always repeated. “Also recorded” adds a separate entry of the source.

Assays:
SphK2 [1] = target: T1, SphK2 (Homo sapiens, UniProt Q9NRA0); assay: SphK2 activity assay (sphingosine substrate, with kinetic study); format: biochemical
T1 sequence (Q9NRA0 1-654): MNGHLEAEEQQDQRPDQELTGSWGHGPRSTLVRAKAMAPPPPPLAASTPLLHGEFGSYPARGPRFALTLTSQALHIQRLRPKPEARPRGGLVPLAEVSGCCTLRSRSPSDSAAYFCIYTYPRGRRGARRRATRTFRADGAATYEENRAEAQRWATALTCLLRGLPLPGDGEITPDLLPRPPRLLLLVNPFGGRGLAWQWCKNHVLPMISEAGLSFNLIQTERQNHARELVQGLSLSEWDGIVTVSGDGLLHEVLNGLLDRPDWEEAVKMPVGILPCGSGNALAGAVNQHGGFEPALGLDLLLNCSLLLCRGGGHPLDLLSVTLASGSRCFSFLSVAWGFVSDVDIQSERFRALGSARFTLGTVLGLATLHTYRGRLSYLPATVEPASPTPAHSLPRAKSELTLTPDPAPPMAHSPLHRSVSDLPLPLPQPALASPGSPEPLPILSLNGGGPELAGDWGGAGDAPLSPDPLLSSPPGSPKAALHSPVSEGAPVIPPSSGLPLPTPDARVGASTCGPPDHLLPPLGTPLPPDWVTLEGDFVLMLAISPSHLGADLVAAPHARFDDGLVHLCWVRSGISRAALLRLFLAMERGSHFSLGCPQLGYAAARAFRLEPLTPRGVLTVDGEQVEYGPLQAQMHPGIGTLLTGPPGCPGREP
Experimental: A) SphK1 and SphK2 activities were measured with 5 μM sphingosine in the absence or presence of the indicated concentrations of K145 or 10 μM DMS. […] Data are expressed as percentage of control activity averaged from 2 independent experiments. Data are expressed as mean value±SEM.
SphK2 was incubated with indicated compounds at 10 μM, then the activity of SphK2 was determined. The data shown here is a relative activity of SphK2 compared to control (no inhibitor, column labeled Sph in the Figure). […] “A” and “B” refer to different batches of a compound.
SphK2 was incubated with indicated compounds at 10 μM, then the activity of SphK2 was determined. The data shown here is a relative activity of SphK2 compared to control (no inhibitor).

[2] = test system: human leukemia U937 cells; assay: Cell viability assay in human leukemia U937 cells; format: cell-based
Experimental: Cells were cultured at a density of 5×10^4 (U937) or 1×10^4 (PC-3, DU145, M12, HT29) cells per well in flat bottomed 96-well plates and treated with various concentrations of test compound at 37° C. (5% CO2). After 24 h, 20 μL of CellTiter 96® Aqueous One Solution Reagent (Promega, Madison, Wis.) was added to each well according to the manufacturer's instructions. After 1 hour, the cell viability was determined by measuring the absorbance at 490 nm using a micro-plate reader.

U937 xenograft [3] = assay: U937 xenografts in nude mice, i.p. administration; format: in vivo, BALB/c-nu mice; conditions: 15 mg/kg daily i.p.
Experimental: D) Body weights of mice throughout treatment. Data are expressed as mean value±SD. *P<0.05 compared to control group.
Female nude mice (BALB/c-nu, n=7) were inoculated with 3×10^7 U937 cells subcutaneously in the right flank. After 7 days of implant of U937 cells, mice were treated daily with Vehicle (control), or Tamibarotene (15 mg/Kg, positive control), or Formula III (K145) (15 mg/Kg) by i.p. administration. Tumor size was measured every other day.

S1P = assay: Cellular S1P level in U937 cells by ESI-MS/MS; format: cell-based, human; conditions: 10 μM, 3 h
Experimental: (§1) FIG. 16A-E. K145 accumulates and suppresses the S1P level. A and B) U937 cells were treated with K145 at the indicated concentrations for 3 h and the levels of K145 and S1P were measured by ESI-MS/MS. C) HEK293 cells were treated with K145 (10 μM) for 2 h. Lipids were extracted and different chain length species of ceramide were determined by LC-ESI-MS/MS. Numbers indicate chain length followed by the number of double bonds in the fatty acid. Data are averages of triplicate determinations and are expressed as pmol lipid/10^6 cells. D) U937 cells were treated with or without K145 (10 μM) for 3 h and levels of C1P species were determined by ESI-MS/MS. E) U937 cells were treated with FTY720 (1 μM) in the absence or presence of indicated K145 for 3 h, then FTY720-P was measured by ESI-MS/MS. *P<0.05 compared to control.
(§2) Next we examined whether K145 affects cellular levels of S1P. […] Therefore, we further characterized K145 in U937 cells. […] This might be due to the fact that many enzymes such as SphK1, SphK2, S1P lyase, and S1P phosphatise, not just SphK2, are involved in the regulation of cellular S1P. […] To further confirm its SphK2 selectivity, we then tested the effects of K145 on the phosphorylation of FTY720, a SphK2 specific substrate.

ceramide = assay: Ceramide species in HEK293 cells by LC-ESI-MS/MS; format: cell-based; conditions: 10 μM, 2 h
Experimental: as §1

[4] = test system: ceramide-1-phosphate (C1P); assay: C1P species in U937 cells by ESI-MS/MS; format: cell-based, human; conditions: 10 μM, 3 h
Experimental: as §1, §2

U937 cells = assay: Uptake of K145 by U937 cells, ESI-MS/MS; format: in vitro ADME, human; conditions: 3 h, concentration dependent
Experimental: as §1, §2

U937 xenograft [5] = assay: U937 xenografts in nude mice, oral administration
Experimental: BALB/c-nu mice (n=7) with palpable U937 xenograft were treated daily with vehicle, tamibarotene (20 mg/kg), or K145 (50 mg/kg) for 15 days by oral gavage. After treatment, animals were sacrificed and tumors were removed, weighed and images were taken. […] Data are expressed as mean value±SEM. *P<0.05 compared to control group.
In this experiment, K145 was given at 50 mg/kg by oral gavage daily for 15 days and tumor volume and animal weights were measured every other day. Again, tamibarotene (20 mg/kg) was used as positive control.

SphK2 [6] = target: T1, SphK2; assay: Phosphorylation of FTY720 (SphK2 specific substrate) in U937 cells; format: cell-based; set-up: U937 cells were treated with FTY720 (1 μM) in the absence or presence of indicated K145 for 3 h; endogenous in cells; host or cells: U937; conditions: FTY720 1 μM, 3 h

SMILES: CCCCOc1ccc(CC/C=C2\SC(=O)N(CCN)C2=O)cc1 [K145, 3-(2-aminoethyl)-5-[3-(4-butoxyl-phenyl)-propylidene]-thiazolidine-2,4-dione]
- Ki (SphK2 [1]; Lineweaver-Burk analysis, increasing concentrations of sphingosine): 6.4 ± 0.7 µM
- IC50 (SphK2 [1]; recombinant SphK2, 5 μM sphingosine): 5 µM and 4.3 µM
- inhibition of SphK2 activity (in words) (SphK2 [1]; relative activity vs no inhibitor, compounds at 10 μM (FIGS. 1, 3, 5)): significantly inhibit SphK2; also recorded: inhibits SphK2
- type of SphK2 inhibition (SphK2 [1]; with the substrate sphingosine): competitive inhibitor
- IC50 for proliferation of tested cancer cells (in words) ([2]; FIG. 8, U937 cells, 24 h): single digit micromolar
- inhibition of growth/proliferation of U937 cells (in words) ([2]; human leukemia U937 cells): dose-dependently inhibits the growth
- TGI (tumor growth inhibition) (U937 xenograft [3]; 17 days): 44.2%
- body weights of mice (U937 xenograft [3]; compared with vehicle): remained the same
- total cellular S1P (S1P): caused a decrease
- ceramide levels (ceramide): without significant effects
- level of ceramide-1-phosphate (C1P) [4]: not significantly affected
- uptake by U937 cells (U937 cells): readily taken up
- oral availability (U937 xenograft [5]; 50 mg/kg oral gavage): orally available
- toxicity (U937 xenograft [5]; 50 mg/kg oral, 15 days): no apparent toxicity was observed
- body weights (U937 xenograft [5]; 50 mg/kg oral, beginning of the treatment, recovered later): slight decrease of body weights
- TGI (tumor growth inhibition) (U937 xenograft [5]; oral gavage daily 15 days, K145 50 mg/kg, tamibarotene 20 mg/kg): 51.25%
- phosphorylation of FTY720 (SphK2 [6]): inhibited
